Data on ten compounds can be found in article PMC7429991 (Journal of medicinal chemistry, 2020).

For data set [1] the following is noted: from PAMPA-BBB Pe.
A further data set concerns the target H3 receptor (Homo sapiens, UniProt Q9Y5N1). The data set is described as follows: PDSP off-target binding, H3 receptor.
Data set [2] concerns panel of 45 pharmacologically relevant CNS targets and receptors. The data set is described as follows: PDSP off-target radioligand displacement screen. In kind it is binding. The following applies: for PDSP targets classified moderate / PDSP targets classified insignificant / PDSP targets classified weak / PDSP targets classified Concerning: number of 45 targets; for PDSP targets classified moderate: 100–300 nM; for PDSP targets classified insignificant: <50% bound at 10 μM; for PDSP targets classified weak: >300 nM; for fraction of concerning or moderate hits: PDSP panel. Background: Displacement assays read how much labelled ligand stays bound in the presence of the test substance.

Another data set addresses rat nNOS (rnNOS) (Rattus norvegicus, UniProt P29476).
The target in another data set is human iNOS (hiNOS) (Homo sapiens, UniProt P35228). The following applies: read-out: Ki hiNOS; purified human iNOS; Ki from IC50 (Cheng-Prusoff).
Another data set has as its target human eNOS (heNOS) (Homo sapiens, UniProt P29474).
A further data set addresses D597N rnNOS (Rattus norvegicus, UniProt P29476, D597N).
The next data set concerns the target H2 receptor (Homo sapiens, UniProt P25021). The data set is described as follows: PDSP off-target binding, H2 receptor.
The next data set has as its target M336V/D597N rnNOS (Rattus norvegicus, UniProt P29476, D597N/M336V). The following applies: M336V/D597N vs D597N rnNOS.

Structures can show the parent of a compound that is named as a salt.

Chain of M336V/D597N rnNOS (P29476 whole entry M336V/D597N): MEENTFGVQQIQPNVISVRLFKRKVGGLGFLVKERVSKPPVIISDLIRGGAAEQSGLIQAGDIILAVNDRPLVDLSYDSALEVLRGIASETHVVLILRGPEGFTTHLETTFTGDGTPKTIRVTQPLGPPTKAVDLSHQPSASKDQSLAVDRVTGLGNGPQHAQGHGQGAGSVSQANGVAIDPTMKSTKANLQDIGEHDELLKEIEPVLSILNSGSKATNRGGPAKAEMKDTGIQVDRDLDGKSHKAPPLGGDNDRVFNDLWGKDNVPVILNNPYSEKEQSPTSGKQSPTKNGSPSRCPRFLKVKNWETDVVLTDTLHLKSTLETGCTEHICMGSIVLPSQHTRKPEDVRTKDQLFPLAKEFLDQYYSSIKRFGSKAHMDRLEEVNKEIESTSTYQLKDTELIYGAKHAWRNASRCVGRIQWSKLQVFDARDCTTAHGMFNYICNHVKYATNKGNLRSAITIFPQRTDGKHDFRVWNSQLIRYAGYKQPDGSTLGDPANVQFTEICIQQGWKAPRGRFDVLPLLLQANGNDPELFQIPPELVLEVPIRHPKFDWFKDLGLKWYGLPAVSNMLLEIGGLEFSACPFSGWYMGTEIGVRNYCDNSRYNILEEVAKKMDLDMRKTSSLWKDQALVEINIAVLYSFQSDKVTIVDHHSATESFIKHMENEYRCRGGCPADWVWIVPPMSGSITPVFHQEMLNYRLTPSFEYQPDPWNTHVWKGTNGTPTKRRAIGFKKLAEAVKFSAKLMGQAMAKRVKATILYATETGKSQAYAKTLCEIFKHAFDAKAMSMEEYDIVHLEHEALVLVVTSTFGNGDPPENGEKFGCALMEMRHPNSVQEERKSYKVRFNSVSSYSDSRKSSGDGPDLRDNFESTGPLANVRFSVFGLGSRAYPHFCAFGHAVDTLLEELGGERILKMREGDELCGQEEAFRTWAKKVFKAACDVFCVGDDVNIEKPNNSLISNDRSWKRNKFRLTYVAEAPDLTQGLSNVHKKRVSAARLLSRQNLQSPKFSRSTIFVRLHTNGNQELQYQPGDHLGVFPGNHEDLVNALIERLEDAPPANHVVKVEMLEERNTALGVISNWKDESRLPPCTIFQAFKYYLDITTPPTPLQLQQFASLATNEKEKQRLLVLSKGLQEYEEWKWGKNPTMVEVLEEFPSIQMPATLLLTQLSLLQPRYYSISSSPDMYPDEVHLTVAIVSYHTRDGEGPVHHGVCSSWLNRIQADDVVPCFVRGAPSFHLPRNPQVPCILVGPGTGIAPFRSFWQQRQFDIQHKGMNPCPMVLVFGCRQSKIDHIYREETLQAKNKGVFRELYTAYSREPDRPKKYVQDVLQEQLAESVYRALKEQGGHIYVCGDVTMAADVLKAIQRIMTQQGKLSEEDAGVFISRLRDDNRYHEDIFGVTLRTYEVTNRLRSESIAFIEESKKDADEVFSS
Chain of H3 receptor (Q9Y5N1 whole entry): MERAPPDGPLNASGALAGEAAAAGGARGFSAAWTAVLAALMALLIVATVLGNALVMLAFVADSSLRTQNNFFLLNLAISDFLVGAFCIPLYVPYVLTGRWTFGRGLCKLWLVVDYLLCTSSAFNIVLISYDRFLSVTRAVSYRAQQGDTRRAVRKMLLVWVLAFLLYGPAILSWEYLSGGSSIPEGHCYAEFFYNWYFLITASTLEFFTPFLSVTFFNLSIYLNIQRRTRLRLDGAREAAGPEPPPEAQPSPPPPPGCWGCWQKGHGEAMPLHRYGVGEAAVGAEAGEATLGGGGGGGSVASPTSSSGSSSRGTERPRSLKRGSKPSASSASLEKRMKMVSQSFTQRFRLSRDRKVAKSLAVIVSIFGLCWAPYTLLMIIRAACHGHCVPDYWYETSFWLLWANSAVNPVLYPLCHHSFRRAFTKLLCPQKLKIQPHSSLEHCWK
Chain of H2 receptor (P25021 whole entry): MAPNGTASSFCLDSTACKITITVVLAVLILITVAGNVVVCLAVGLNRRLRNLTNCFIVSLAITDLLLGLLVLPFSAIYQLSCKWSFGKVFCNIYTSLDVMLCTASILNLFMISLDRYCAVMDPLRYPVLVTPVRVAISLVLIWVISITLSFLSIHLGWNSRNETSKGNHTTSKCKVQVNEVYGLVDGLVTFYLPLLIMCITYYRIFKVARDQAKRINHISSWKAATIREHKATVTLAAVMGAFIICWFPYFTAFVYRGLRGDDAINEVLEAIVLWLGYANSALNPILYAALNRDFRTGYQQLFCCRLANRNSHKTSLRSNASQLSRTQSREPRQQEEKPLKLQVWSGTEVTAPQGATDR

Turning to `NCCc1ccc(O)c(O)c1` [dopamine, reference compound], in data set [1], the “prediction (CNS)” value is “CNS (−)”.

Take `Cc1cc(N)nc2cc(-c3ccc(OCC4CC4)c(CN)c3)ccc12` [compound 29, 7-(3-(Aminomethyl)-4-(cyclopropylmethoxy)phenyl)-4-methylquinolin-2-amine Dihydrochloride]: the “prediction (CNS)” value in [1] was “CNS (+) (classified as a “CNS (+)” molecule if its effective permeability (Pe) in this assay is larger than 4.0 × 10^–6 cm s^–1)”. The “off-target binding class, H3 receptor” value on H3 receptor is “concerning (concerning (Ki < 100 nM, or <~2 × nNOS Ki value))”. In [2], the “PDSP targets classified moderate” value was determined as 4, the “PDSP targets classified insignificant” value was found to be 13 and the “PDSP targets classified weak” value was found to be 27. Also, the “PDSP targets classified Concerning” value in [2] (Ki < 100 nM) stood at 1.

Regarding `Cc1cc(N)nc2cc(-c3ccc(OCc4ccccn4)c(CN)c3)ccc12` [compound 32, 7-(3-(Aminomethyl)-4-(pyridin-2-ylmethoxy)phenyl)-4-methylquinolin-2-amine Trihydrochloride], in [2], the “fraction of concerning or moderate hits” value was 11 /45, the “PDSP targets classified insignificant” value is given as 12 and the “PDSP targets classified weak” value was found to be 22. In addition, the “PDSP targets classified Concerning” value in data set [2] ([…]) was found to be 4.

For the compound `Cc1cc(N)nc2cc(-c3cncc(CN)c3)ccc12.Cl.Cl.Cl` [compound 15, 7-(5-(Aminomethyl)pyridin-3-yl)-4-methylquinolin-2-amine Trihydrochloride], the “less potent than 12 in rnNOS” value at rat nNOS (rnNOS) (relative to 12) was “approximately 5 fold”.

Turning to `CNCCc1ccc(-c2ccc3c(C)cc(N)nc3c2)cc1.Cl.Cl` [compound 6, 4-Methyl-7-(4-(2-(methylamino)ethyl)phenyl)quinolin-2-amine Dihydrochloride], the “loss in rnNOS activity” value at rat nNOS (rnNOS) (relative to 5) is recorded as over 2 fold.

Regarding `Cc1cc(N)nc2cc(-c3ccc(CN)cc3)ccc12.Cl.Cl` [compound 7, 7-(4-(Aminomethyl)phenyl)-4-methylquinolin-2-amine Dihydrochloride], the “increase in rnNOS activity” value at rat nNOS (rnNOS) (relative to 5) is given as 2.3 fold. In addition, the “prediction (CNS)” value in data set [1] was “CNS (+) (classified as a “CNS (+)” molecule if its effective permeability (Pe) in this assay is larger than 4.0 × 10^–6 cm s^–1)”.

For orientation: Ki means the equilibrium dissociation constant of an inhibitor or competing ligand from its target. On to “7-(3-(2-Aminoethyl)phenyl)-4-methylquinolin-2-amine Dihydrochloride [compound 12]”, for which the “prediction (CNS)” value in data set [1] is reported as “CNS (+) (classified as a “CNS (+)” molecule if its effective permeability (Pe) in this assay is larger than 4.0 × 10^–6 cm s^–1)”. Besides, the Ki at human iNOS (hiNOS) was 29.9 µM; at human eNOS (heNOS) (read-out: Ki heNOS, purified human eNOS, Ki calculated from IC50), 52.6 µM; at D597N rnNOS (read-out: Ki D597N rnNOS, single mutant (SM) of rat nNOS) it was 0.416 µM. In addition, the “decrease in potency, D597N mutant” value at D597N rnNOS (versus wild type) is listed as 8 fold. Further, under “HLM without NADPH, pH 7.4”, the “% remaining at 60 min (- NADPH)” value was found to be 87%. For the same compound, the “% remaining at 60 min (Buffer)” value (buffer control) came out at 67%. This compound also showed a CLint (in vitro intrinsic clearance, HLM) of 8 mL/min/kg. Besides, the “off-target binding class, H2 receptor” value at H2 receptor is on record as “concerning (concerning (Ki < 100 nM, or <~2 × nNOS Ki value))”.

Regarding `Cc1cc(N)nc2cc(-c3ccc(OCc4cocn4)c(CN)c3)ccc12` [compound 36, 7-(3-(Aminomethyl)-4-(oxazol-4-ylmethoxy)phenyl)-4-methylquinolin-2-amine Trihydrochloride], at M336V/D597N rnNOS, the “increased potency against the double mutant (versus the single mutant)” value came out at 5 fold.

For `Cc1cc(N)nc2cc(-c3ccc(OCc4cccnc4)c(CN)c3)ccc12` [compound 33, 7-(3-(Aminomethyl)-4-(pyridin-3-ylmethoxy)phenyl)-4-methylquinolin-2-amine Trihydrochloride], in data set [1], the “prediction (CNS)” value is given as “CNS (+) (classified as a “CNS (+)” molecule if its effective permeability (Pe) in this assay is larger than 4.0 × 10^–6 cm s^–1)”. Also, in data set [2], the “fraction of concerning or moderate hits” value was 8 /45, the “PDSP targets classified moderate” value is recorded as 5, the “PDSP targets classified insignificant” value is 20 and the “PDSP targets classified weak” value turned out to be 17. For the same compound, the “PDSP targets classified Concerning” value in data set [2] ([…]) is given as 3. Also, on human eNOS (heNOS) (33 versus 32), the “improvement in binding affinity toward heNOS” value turned out to be 3 fold.

In the case of `Cc1cc(N)nc2cc(-c3ccc(OCc4cncs4)c(CN)c3)ccc12` [compound 37, 7-(3-(Aminomethyl)-4-(thiazol-5-ylmethoxy)phenyl)-4-methylquinolin-2-amine Trihydrochloride], the “prediction (CNS)” value in [1] is reported as “CNS (+) (classified as a “CNS (+)” molecule if its effective permeability (Pe) in this assay is larger than 4.0 × 10^–6 cm s^–1)”.
